Test results as given in PubChem BioAssay (NCI).
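All cell lines were grown in 96-well plates and treated with compound for 48 hours. The concentration for 50% growth inhibition is given as GI50. TGI denotes the concentration required for complete inhibition of growth.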

Tests used:
Assay in all cases: NCI-60 cell line screen, 48 h
[1] = system: HS 578T breast
[2] = system: MCF7 breast
[3] = system: EKVX NSCLC
[4] = system: HOP-92 NSCLC
[5] = system: NCI-H460 lung
[6] = system: MDA-MB-231 breast
[7] = system: DU-145 prostate
[8] = system: NCI-H522 lung
[9] = system: MDA-MB-435
[10] = system: CAKI-1 renal
[11] = system: SK-MEL-5 melanoma
[12] = system: NCI-H23 lung
[13] = system: NCI/ADR-RES ovarian
[14] = system: HL-60(TB) leukemia
[15] = system: RXF 393 renal
[16] = system: SNB-75 CNS
[17] = system: LOX IMVI melanoma
[18] = system: SK-OV-3 ovarian
[19] = system: SF-539 CNS
[20] = system: MOLT-4 leukemia
[21] = system: SK-MEL-28 melanoma
[22] = system: SK-MEL-2 melanoma
[23] = system: KM12 colon
[24] = system: UACC-257 melanoma
[25] = system: OVCAR-8 ovarian
[26] = system: A549 NSCLC
[27] = system: SF-295 CNS
[28] = system: UACC-62 melanoma
[29] = system: K-562 leukemia
[30] = system: SNB-19 CNS
[31] = system: CCRF-CEM leukemia
[32] = system: OVCAR-5 ovarian
[33] = system: HT29 colon
[34] = system: NCI-H226 lung
[35] = system: IGROV1 ovarian
[36] = system: HCT-15 colon
[37] = system: UO-31 renal
[38] = system: PC-3 prostate
[39] = system: MALME-3M melanoma
[40] = system: SW-620 colon
[41] = system: HCT-116 colon
[42] = system: A498 renal
[43] = system: RPMI-8226 leukemia
[44] = system: OVCAR-4 ovarian
[45] = system: OVCAR-3 ovarian
[46] = system: SN12C renal
[47] = system: TK-10 renal
[48] = system: SF-268 CNS
[49] = system: BT-549 breast
[50] = system: ACHN renal
[51] = system: T-47D breast
[52] = system: 786-0 renal
[53] = system: HCC-2998 colon
[54] = system: COLO 205 colon
[55] = system: U251 CNS
[56] = system: HOP-62 NSCLC
[57] = system: M14 melanoma

For `CCCCC(CCCCCC(CCCC)C1NC(C)Cc2cc(OC)c(OC)cc21)C1NC(C)Cc2cc(OC)c(OC)cc21` (centres undefined), the GI50 [1] was 1.43 µM, the TGI [1] was 3.6 µM and the GI50 [2] was 1.19 µM. The TGI [2] was 2.52 µM, the GI50 [3] was 1.71 µM and the TGI [3] was 3.61 µM. The GI50 [4] was 1.06 µM, the TGI [4] was 2.58 µM and the GI50 [5] was 1.45 µM. The TGI [5] was 2.97 µM, the GI50 [6] was 1.28 µM and the TGI [6] was 2.6 µM. It also gave a GI50 [7] of 1.8 µM, a TGI [7] of 3.23 µM and a GI50 [8] of 1.7 µM. For the same compound, the TGI [8] was 3.25 µM, the GI50 [9] was 1.76 µM and the TGI [9] was 4.19 µM. It also gave a GI50 [10] of 1.72 µM, a TGI [10] of 3.71 µM and a GI50 [11] of 1.52 µM. For the same compound, the TGI [11] was 2.85 µM, the GI50 [12] was 1.67 µM and the TGI [12] was 3.2 µM. For the same compound, the GI50 [13] was 1.61 µM, the TGI [13] was 3.07 µM and the GI50 [14] was 1.84 µM. The TGI [14] was 3.79 µM, the GI50 [15] was 1.2 µM and the TGI [15] was 2.48 µM. For the same compound, the GI50 [16] was 1.28 µM, the TGI [16] was 2.57 µM and the GI50 [17] was 1.32 µM. For the same compound, the TGI [17] was 2.68 µM, the GI50 [18] was 1.57 µM and the TGI [18] was 2.91 µM. The GI50 [19] was 1.76 µM, the TGI [19] was 3.21 µM and the GI50 [20] was 1.96 µM. The TGI [20] was 4.22 µM, the GI50 [21] was 1.6 µM and the TGI [21] was 2.95 µM. For the same compound, the GI50 [22] was 2.25 µM, the TGI [22] was 3.88 µM and the GI50 [23] was 1.57 µM. For the same compound, the TGI [23] was 3.06 µM, the GI50 [24] was 1.71 µM and the TGI [24] was 3.22 µM. The GI50 [25] was 1.73 µM, the TGI [25] was 3.29 µM and the GI50 [26] was 1.57 µM. It also gave a TGI [26] of 3.02 µM, a GI50 [27] of 1.83 µM and a TGI [27] of 3.79 µM. The GI50 [28] was 1.67 µM, the TGI [28] was 3.05 µM and the GI50 [29] was 0.328 µM. The TGI [29] was 1.18 µM, the GI50 [30] was 1.7 µM and the TGI [30] was 3.15 µM. It also gave a GI50 [31] of 2.15 µM, a TGI [31] of 4.66 µM and a GI50 [32] of 1.82 µM. The TGI [32] was 3.25 µM, the GI50 [33] was 0.34 µM and the TGI [33] was 1.19 µM. The GI50 [34] was 1.53 µM, the TGI [34] was 3.01 µM and the GI50 [35] was 1.94 µM. It also gave a TGI [35] of 4.26 µM, a GI50 [36] of 1.31 µM and a TGI [36] of 2.76 µM. The GI50 [37] was 1.67 µM, the TGI [37] was 3.73 µM and the GI50 [38] was 1.77 µM. It also gave a TGI [38] of 3.51 µM, a GI50 [39] of 1.9 µM and a TGI [39] of 3.94 µM. The GI50 [40] was 0.819 µM, the TGI [40] was 2.2 µM and the GI50 [41] was 1.49 µM. The TGI [41] was 2.96 µM, the GI50 [42] was 1.41 µM and the TGI [42] was 2.73 µM. It also gave a GI50 [43] of 1.99 µM, a TGI [43] of 4.43 µM and a GI50 [44] of 1.45 µM. For the same compound, the TGI [44] was 2.76 µM, the GI50 [45] was 1.83 µM and the TGI [45] was 3.27 µM. The GI50 [46] was 1.63 µM, the TGI [46] was 3.04 µM and the GI50 [47] was 1.75 µM. It also gave a TGI [47] of 3.22 µM, a GI50 [48] of 1.64 µM and a TGI [48] of 3.08 µM. For the same compound, the GI50 [49] was 1.79 µM, the TGI [49] was 3.26 µM and the GI50 [50] was 1.76 µM. It also gave a TGI [50] of 3.21 µM, a GI50 [51] of 1.6 µM and a TGI [51] of 3.11 µM. It also gave a GI50 [52] of 1.69 µM, a TGI [52] of 3.15 µM and a GI50 [53] of 0.25 µM. It also gave a TGI [53] of 0.742 µM, a GI50 [54] of 0.294 µM and a TGI [54] of 0.842 µM. It also gave a GI50 [55] of 1.29 µM, a TGI [55] of 2.63 µM and a GI50 [56] of 1.47 µM. It also gave a TGI [56] of 2.88 µM, a GI50 [57] of 1.79 µM and a TGI [57] of 3.39 µM.
